Results: patent US20240158446A1, “CYCLIC COMPOUND HAVING SELECTIVE INHIBITORY ACTION ON KRAS OVER HRAS AND NRAS” (CHUGAI SEIYAKU KABUSHIKI KAISHA, priority 2021, published 2024)
Where two headings read alike, the source gives them in different places. *1 amine or outer side, *2 acyl side, *3 side chain or, on linkers, in order; H or OH if unused. Where a SMILES comes first, the peptide text is derived from it. Bridges are numbered along the chain shown (N, C = ends). [ ]: non-standard residue; d: D form. The star is where a group is joined. hPhe(3-Cl-4-CF3) = N[C@@H](CCc1ccc(C(F)(F)F)c(Cl)c1)C(=O)O; X18 = Cc1ccc(C[C@@H](C(=O)[*:2])N(CC(C)C)[*:1])cc1; NMeGly(cPent) = CN[C@H](C(=O)O)C1CCCC1; NMeD = CN[C@@H](CC(=O)O)C(=O)O; NMeL = CN[C@@H](CC(C)C)C(=O)O; Morpholide = C1CN(*)CCO1; Ac5c = NC1(C(=O)O)CCCC1; Sar = CNCC(=O)O

What was measured:
[1] = molecular target: GDP-bound KRAS wild-type protein (Homo sapiens, UniProt P01116); assay: Binding to KRAS by surface plasmon resonance (SPR), Single Cycle Kinetics; details: GDP-bound KRAS wild-type protein, read-out: KRAS KD
GDP-bound KRAS wild-type protein, sequence (P01116 whole entry): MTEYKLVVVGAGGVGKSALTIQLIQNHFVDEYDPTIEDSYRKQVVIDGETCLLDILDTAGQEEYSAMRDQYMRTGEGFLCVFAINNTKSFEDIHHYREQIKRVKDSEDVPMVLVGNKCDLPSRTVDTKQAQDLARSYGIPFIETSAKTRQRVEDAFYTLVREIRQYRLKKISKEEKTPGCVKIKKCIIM

[2] = molecular target: GDP-bound NRAS wild-type protein (Homo sapiens, UniProt P01111); assay: Binding to NRAS by surface plasmon resonance (SPR), Single Cycle Kinetics; details: for NRAS/KRAS (ratio of KD value for NRAS to KD value for KRAS) / NRAS/KRAS (ratio of KD value with respect to NRAS to KD value with respect to KRAS): GDP-bound NRAS wild-type protein vs GDP-bound KRAS wild-type protein; for NRAS/KRAS (ratio of KD value with respect to GDP-bound NRAS wild-type protein to KD value with respect to KRAS): SPR KD ratio NRAS/KRAS, class symbols
GDP-bound NRAS wild-type protein, sequence (P01111 whole entry): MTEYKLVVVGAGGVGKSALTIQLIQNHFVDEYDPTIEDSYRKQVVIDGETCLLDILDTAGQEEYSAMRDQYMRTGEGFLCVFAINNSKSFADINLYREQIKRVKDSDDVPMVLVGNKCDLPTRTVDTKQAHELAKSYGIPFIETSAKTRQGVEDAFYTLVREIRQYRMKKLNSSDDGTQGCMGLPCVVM

[3] = molecular target: GDP-bound HRAS wild-type protein (Homo sapiens, UniProt P01112); assay: Binding to HRAS by surface plasmon resonance (SPR), Single Cycle Kinetics; details: for HRAS/KRAS (ratio of KD value for HRAS to KD value for KRAS) / HRAS/KRAS (ratio of KD value with respect to HRAS to KD value with respect to KRAS): GDP-bound HRAS wild-type protein vs GDP-bound KRAS wild-type protein; for HRAS/KRAS (ratio of KD value with respect to GDP-bound HRAS wild-type protein to KD value with respect to KRAS): SPR KD ratio HRAS/KRAS, class symbols
GDP-bound HRAS wild-type protein, sequence (P01112 whole entry): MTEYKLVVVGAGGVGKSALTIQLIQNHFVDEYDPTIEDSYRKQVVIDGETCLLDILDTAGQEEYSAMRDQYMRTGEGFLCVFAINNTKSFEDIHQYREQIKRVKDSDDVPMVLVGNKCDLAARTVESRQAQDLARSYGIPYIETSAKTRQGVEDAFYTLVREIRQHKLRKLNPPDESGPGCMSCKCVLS

[4] = SPR Single Cycle Kinetics, 1:1 binding model

| SMILES | Kd ([1]; SPR, Single Cycle Kinetics) [nM] | NRAS/KRAS (ratio of KD value for NRAS to KD value for KRAS) ([2]; SPR) | HRAS/KRAS (ratio of KD value for HRAS to KD value for KRAS) ([3]; SPR) | Kd [1, 4] [nM] | NRAS/KRAS (ratio of KD value with respect to GDP-bound NRAS wild-type protein to KD value with respect to KRAS) [2] | HRAS/KRAS (ratio of KD value with respect to GDP-bound HRAS wild-type protein to KD value with respect to KRAS) [3] | further results |
| --- | --- | --- | --- | --- | --- | --- | --- |
| CCO[C@@H]1C[C@H]2C(=O)NC3(CCC3)C(=O)N(C)[C@@H](C3CCCC3)C(=O)N(C)[C@H](C(=O)N(C)C)CC(=O)N(C)[C@@H](CC)C(=O)N[C@@H]([C@@H](C)CC)C(=O)N(C)CC(=O)N(C)[C@H]3C/C=C\CCN(C3=O)[C@@H](Cc3ccc(C(F)(F)F)cc3)C(=O)N(C)CC(=O)N[C@@H](CCc3cc(F)c(C(F)(F)F)c(F)c3)C(=O)N2C1 [PP0824, (2S,8S,12R,14S,20S,23S,27S,30S,36S,38Z)-20-cyclopentyl-8-[2-[3,5-difluoro-4-(trifluoromethyl)phenyl]ethyl]-12-ethoxy-27-ethyl-N,N,4,19,22,26,32,35-octamethyl-30-[(1S)-1-methylpropyl]-3,6,9,15,18,21,25,28,31,34,42-undecaoxo-2-[[4-(trifluoromethyl)phenyl]methyl]spiro[1,4,7,10,16,19,22,26,29,32,35-undecazatricyclo[34.5.1.0^10,14]dotetracont-38-ene-17,1′-cyclobutane]-23-carboxamide] | 0.055 | A (a compound having 10 or more and less than 20 is denoted as A) | A (a compound having 10 or more and less than 20 is denoted as A) |  |  |  |  |
| CCO[C@@H]1C[C@H]2C(=O)NC3(CC=CC3)C(=O)N(C)[C@@H](C3CCCC3)C(=O)N(C)[C@H](C(=O)N3CCOCC3)CC(=O)N(C)[C@@H](CC(C)C)C(=O)N[C@@H]([C@@H](C)CC)C(=O)N(C)CC(=O)N(C)[C@H]3CCCCCN(C3=O)[C@@H](Cc3ccc(C(F)(F)F)cc3)C(=O)N(C)CC(=O)N[C@@H](CCc3cc(F)c(C(F)(F)F)c(F)c3)C(=O)N2C1 [PP0727] |  |  |  | 1.3 |  |  | NRAS/KRAS (ratio of KD value with respect to NRAS to KD value with respect to KRAS) ([2]; SPR): B (a compound having 3 or more and less than 10 is denoted as B); HRAS/KRAS (ratio of KD value with respect to HRAS to KD value with respect to KRAS) ([3]; SPR): B (a compound having 3 or more and less than 10 is denoted as B) |
| CCCOC[C@H]1C(=O)N[C@@H]([C@@H](C)CC)C(=O)N(C2CC2)CC(=O)N(C)[C@H]2C/C=C\CCN(C2=O)[C@@H](Cc2ccc(C)cc2)C(=O)N(C)CC(=O)N[C@@H](CCc2ccc(C(F)(F)F)c(OC)c2)C(=O)N2C[C@H](OCC)C[C@H]2C(=O)N(C)C2(CCC2)C(=O)N(C)[C@@H](C2CCCC2)C(=O)N(C)[C@H](C(=O)N(C)C)CC(=O)N1C [PP2330] | 0.11 | A (a compound having 10 or more and less than 20 is denoted as A) | A (a compound having 10 or more and less than 20 is denoted as A) |  |  |  |  |
| CCO[C@@H]1C[C@H]2C(=O)NC3(CC(C)(C)C3)C(=O)N(C)[C@@H](C3CCCC3)C(=O)N(C)[C@H](C(=O)N(C)C)CC(=O)N(C)[C@H]3CCCC/C=C/c4ccc(cc4)C[C@@H](C(=O)N(C)CC(=O)N[C@@H](CCc4cc(F)c(C(F)(F)F)c(F)c4)C(=O)N2C1)N1CC/C=C\C[C@@H](C1=O)N(C)C(=O)CN(C)C(=O)[C@H]([C@@H](C)CC)NC3=O [PP1831] | 0.025 |  |  |  |  |  | NRAS/KRAS (KD ratio) ([2]; ratio of KD for GDP-bound NRAS wild-type protein to KD for KRAS, SPR): A (a compound having 10 or more and less than 20 is denoted as A); HRAS/KRAS (KD ratio) ([3]; ratio of KD for GDP-bound HRAS wild-type protein to KD for KRAS, SPR): A (a compound having 10 or more and less than 20 is denoted as A) |
| CCO[C@@H]1C[C@H]2C(=O)NC3(CCC3)C(=O)N(C)[C@@H](C(C)(C)C)C(=O)N(C)[C@H](C(=O)N3CCOCC3)CC(=O)N(C)[C@@H](CC(C)C)C(=O)N[C@@H]([C@@H](C)CC)C(=O)N(C)CC(=O)N(C)[C@H]3CCCCCN(C3=O)[C@@H](Cc3ccc(C(F)(F)F)cc3)C(=O)N(C)CC(=O)N[C@@H](CCc3cc(F)c(C(F)(F)F)c(F)c3)C(=O)N2C1 [PP0823] | 0.82 | A (a compound having 10 or more and less than 20 is denoted as A) | B (a compound having 3 or more and less than 10 is denoted as B) |  |  |  |  |
| CCC[C@H]1C(=O)N[C@@H]([C@@H](C)CC)C(=O)N(C2CC2)CC(=O)N(C)[C@H]2C/C=C\CCN(C2=O)[C@@H](Cc2ccc(C(F)(F)F)cc2)C(=O)N(C)CC(=O)N[C@@H](CCc2ccc(C(F)(F)F)c(OC)c2)C(=O)N2C[C@H](OCC)C[C@H]2C(=O)NC2(CC(C)(C)C2)C(=O)N(C)[C@@H](CC2CC2)C(=O)N(C)[C@H](C(=O)N(C)C)CC(=O)N1C [PP2815] |  |  |  | 3.6 | A (a compound having 10 or more and less than 20 is denoted as A) | A (a compound having 10 or more and less than 20 is denoted as A) |  |
| CC[C@H](C)[C@@H]1NC(=O)[C@H](CC(C)C)N(C)C(=O)C[C@@H](C(=O)N2CCOCC2)N(C)C(=O)[C@H](C2CCCC2)N(C)C(=O)C2(CCCC2)NC(=O)[C@@H]2CCCN2C(=O)[C@H](CCc2ccc(C(F)(F)F)c(Cl)c2)NC(=O)CN(C)C(=O)[C@H](Cc2ccc(C)cc2)N(CC(C)C)C(=O)CN(C)C(=O)CN(C)C1=O [PP0063] ([NMeL]I[Sar][Sar][X18][Sar][hPhe(3-Cl-4-CF3)]P[Ac5c][NMeGly(cPent)][NMeD]-Morpholide; lactam N-11) |  | C (A compound having a KD ratio of 0.1 or more and less than 3 is denoted as C) | C (A compound having a KD ratio of 0.1 or more and less than 3 is denoted as C) | 2.9 |  |  |  |
| CCC[C@@H]1C[C@H]2C(=O)NC3(CCC3)C(=O)N(C)[C@@H](C3CCCC3)C(=O)N(C)[C@H](C(=O)N(C)C)CC(=O)N(C)[C@@H](CCC)C(=O)N[C@@H]([C@@H](C)CC)C(=O)N(C)CC(=O)N(C)[C@H]3C/C=C\CCN(C3=O)[C@@H](Cc3ccc(C)cc3)C(=O)N(C)CC(=O)N[C@@H](CCc3ccc(C(F)(F)F)c(Cl)c3)C(=O)N2C1 [PP2238] | 0.2 | A (a compound having 10 or more and less than 20 is denoted as A) | A (a compound having 10 or more and less than 20 is denoted as A) |  |  |  |  |
| CCC[C@H]1C(=O)N[C@@H]([C@@H](C)CC)C(=O)N(C2CC2)CC(=O)N(C)[C@H]2C/C=C\CCN(C2=O)[C@@H](Cc2ccc(C)cc2)C(=O)N(C)CC(=O)N[C@@H](CCc2ccc(C(F)(F)F)c(OC)c2)C(=O)N2C[C@H](OCC)C[C@H]2C(=O)NC2(CC(C)(C)C2)C(=O)N(C)[C@@H](CC2CC2)C(=O)N(C)[C@H](C(=O)N(C)C)CC(=O)N1C [PP2803] |  |  |  | 5.9 | A (a compound having 10 or more and less than 20 is denoted as A) | A (a compound having 10 or more and less than 20 is denoted as A) |  |
| CC[C@H](C)[C@@H]1NC(=O)[C@H](CC(C)C)N(C)C(=O)C[C@@H](C(=O)N2CCOCC2)N(C)C(=O)[C@H](C2CCCC2)N(C)C(=O)C2(CCC2)NC(=O)[C@@H]2CC(F)(F)CN2C(=O)[C@H](CCc2cc(F)c(C(F)(F)F)c(F)c2)NC(=O)CN(C)C(=O)[C@H](Cc2ccc(C(F)(F)F)cc2)N2CCCC[C@@H](C2=O)N(C)C(=O)CN(C)C1=O [PP0575] |  |  |  | 0.023 |  |  | NRAS/KRAS (ratio of KD value with respect to NRAS to KD value with respect to KRAS) ([2]; SPR): B (a compound having 3 or more and less than 10 is denoted as B); HRAS/KRAS (ratio of KD value with respect to HRAS to KD value with respect to KRAS) ([3]; SPR): B (a compound having 3 or more and less than 10 is denoted as B) |
| CCO[C@@H]1C[C@H]2C(=O)NC3(CCC3)C(=O)N(C)[C@@H](C3CCCC3)C(=O)N(C)[C@H](C(=O)N3CCCCC3)CC(=O)N(C)[C@H]3CCC/C=C/c4ccc(cc4)C[C@@H](C(=O)N(C)CC(=O)N[C@@H](CCc4cc(F)c(C(F)(F)F)c(F)c4)C(=O)N2C1)N1CC/C=C\C[C@@H](C1=O)N(C)C(=O)CN(C1CC1)C(=O)[C@H]([C@@H](C)CC)NC3=O [PP2954] |  |  |  | 0.37 | A (a compound having 10 or more and less than 20 is denoted as A) | A (a compound having 10 or more and less than 20 is denoted as A) |  |
| CCC[C@H]1C(=O)N[C@@H]([C@@H](C)CC)C(=O)N(C)CC(=O)N(C)[C@H]2C/C=C\CCN(C2=O)[C@@H](Cc2ccc(C)cc2)C(=O)N(C)CC(=O)N[C@@H](CCc2ccc3sc(C)c(C)c3c2)C(=O)N2C[C@H](OCC)C[C@H]2C(=O)NC2(CC(C)(C)C2)C(=O)N(C)[C@@H](C(CC)CC)C(=O)N(C)[C@H](C(=O)N(C)C)CC(=O)N1C [PP2902] |  |  |  | 0.71 | AA (a compound having 20 or more is denoted as AA) | A (a compound having 10 or more and less than 20 is denoted as A) |  |
| CC[C@H](C)[C@@H]1NC(=O)[C@H](C)N(C)C(=O)C[C@@H](C(=O)N2CCOCC2)N(C)C(=O)[C@H](C2CCCC2)N(C)C(=O)C2(CCCC2)NC(=O)[C@@H]2CCCN2C(=O)[C@H](CCc2cc(F)c(C(F)(F)F)c(F)c2)NC(=O)CN(C)C(=O)[C@H](Cc2ccc(C(F)(F)F)cc2)N2CCCC[C@@H](C2=O)N(C)C(=O)CN(C)C1=O [PP0549] |  |  |  | 0.062 |  |  | NRAS/KRAS (ratio of KD value with respect to NRAS to KD value with respect to KRAS) ([2]; SPR): C (A compound having a KD ratio of 0.1 or more and less than 3 is denoted as C); HRAS/KRAS (ratio of KD value with respect to HRAS to KD value with respect to KRAS) ([3]; SPR): B (a compound having 3 or more and less than 10 is denoted as B) |
